Source: ChEMBL document CHEMBL2203242, “A regio- and stereoselective 1,3-dipolar cycloaddition for the synthesis of new-fangled dispiropyrrolothiazoles as antimycobacterial agents” (Bioorg Med Chem Lett, 2012)
≈ marks a conversion by molar mass, not a printed value.

Test system: Mycobacterium tuberculosis
Assay: Antimycobacterial activity against isoniazid-resistant Mycobacterium tuberculosis by agar dilution method
Assay type: functional

| Compound | MIC90 [µM] |
| --- | --- |
| COc1cc2c(cc1OC)C(=O)[C@]1(C2)[C@@H](c2ccccc2)[C@@H]2CSCN2[C@@]12C(=O)Nc1ccc(OC(F)(F)F)cc12 | > 6.25 |
| COc1cc2c(cc1OC)C(=O)[C@]1(C2)[C@@H](c2ccccc2Cl)[C@@H]2CSCN2[C@@]12C(=O)Nc1ccc(OC(F)(F)F)cc12 | 36.4 (≈ 22.5 µg/mL) |
| COc1cc2c(cc1OC)C(=O)[C@]1(C2)[C@@H](c2ccc(F)cc2)[C@@H]2CSCN2[C@@]12C(=O)N(N1CCOCC1)c1ccccc12 | 35.1 (≈ 21.1 µg/mL) |
| COc1ccc([C@H]2[C@@H]3CSCN3[C@@]3(C(=O)N(N4CCOCC4)c4ccccc43)[C@@]23Cc2cc(OC)c(OC)cc2C3=O)cc1OC | 24.2 (≈ 15.6 µg/mL) |
| COc1cc2c(cc1OC)C(=O)[C@]1(C2)[C@@H](c2ccccc2)[C@@H]2CSCN2[C@@]12C(=O)N(N1CCOCC1)c1ccccc12 | > 6.25 |
| COc1cc2c(cc1OC)C(=O)[C@]1(C2)[C@@H](c2ccccc2Cl)[C@@H]2CSCN2[C@@]12C(=O)N(N1CCOCC1)c1ccccc12 | 18.3 (≈ 11.3 µg/mL) |
| COc1cc2c(cc1OC)C(=O)[C@]1(C2)[C@@H](c2ccc(F)cc2)[C@@H]2CSCN2[C@@]12C(=O)Nc1ccc(OC(F)(F)F)cc12 | 16.6 (≈ 9.99 µg/mL) |
| COc1ccc([C@H]2[C@@H]3CSCN3[C@@]3(C(=O)Nc4ccc(OC(F)(F)F)cc43)[C@@]23Cc2cc(OC)c(OC)cc2C3=O)cc1OC | 22.2 (≈ 14.3 µg/mL) |
| NNC(=O)c1ccncc1 [ISONIAZID] | 11.2 (≈ 1.54 µg/mL) |
